Measured values from patent publication US20240109865A1, “INDAZOLE COMPOUNDS AS KINASE INHIBITORS” (TYRA BIOSCIENCES, INC., priority 2020, published 2024).
Like-named read-outs stand apart in the source and are kept apart here.

Legend:
Test in all cases: Kinase assay, binding constants (Kd), kinase-tagged T7 phage, qPCR
FGFR3 = FGFR3 (Homo sapiens (Human), UniProt P22607)
Procedure, shortened: (§1)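 Using T7 phage lysates from BL21-derived E. coli, compounds at 0.9% final DMSO competed for kinase binding to ligand-bearing magnetic beads. After elution, qPCR measured remaining kinase, and Kds were fitted by non-linear least squares with the Hill slope fixed at −1.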

FGFR4 = FGFR4 (Homo sapiens (Human), UniProt P22455)
Chain of FGFR4 (P22455 22-802): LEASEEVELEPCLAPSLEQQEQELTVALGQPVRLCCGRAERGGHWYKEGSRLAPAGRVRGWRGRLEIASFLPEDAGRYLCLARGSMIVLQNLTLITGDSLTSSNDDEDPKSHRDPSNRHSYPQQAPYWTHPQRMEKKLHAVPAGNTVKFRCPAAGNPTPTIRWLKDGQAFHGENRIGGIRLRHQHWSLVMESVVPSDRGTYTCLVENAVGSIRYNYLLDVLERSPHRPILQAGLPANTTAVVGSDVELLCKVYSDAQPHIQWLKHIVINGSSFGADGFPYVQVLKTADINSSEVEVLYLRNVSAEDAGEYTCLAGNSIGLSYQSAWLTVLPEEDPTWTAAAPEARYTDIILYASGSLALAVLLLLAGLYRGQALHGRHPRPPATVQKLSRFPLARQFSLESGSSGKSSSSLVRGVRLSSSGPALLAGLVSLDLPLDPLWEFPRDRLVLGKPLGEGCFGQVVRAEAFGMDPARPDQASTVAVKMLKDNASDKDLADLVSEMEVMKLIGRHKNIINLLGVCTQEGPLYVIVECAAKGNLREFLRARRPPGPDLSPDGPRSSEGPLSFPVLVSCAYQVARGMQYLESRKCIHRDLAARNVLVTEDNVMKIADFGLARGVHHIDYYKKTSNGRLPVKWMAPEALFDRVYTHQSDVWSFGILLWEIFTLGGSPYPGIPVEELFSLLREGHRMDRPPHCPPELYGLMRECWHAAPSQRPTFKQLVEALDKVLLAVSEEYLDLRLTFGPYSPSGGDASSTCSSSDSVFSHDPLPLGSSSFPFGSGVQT
Procedure, shortened: as §1

FGFR3 (V555M) = FGFR3 (V555M) (Homo sapiens (Human), UniProt P22607, V555M); conditions: V555M mutant
Chain of FGFR3 (V555M) (P22607 23-806 V555M): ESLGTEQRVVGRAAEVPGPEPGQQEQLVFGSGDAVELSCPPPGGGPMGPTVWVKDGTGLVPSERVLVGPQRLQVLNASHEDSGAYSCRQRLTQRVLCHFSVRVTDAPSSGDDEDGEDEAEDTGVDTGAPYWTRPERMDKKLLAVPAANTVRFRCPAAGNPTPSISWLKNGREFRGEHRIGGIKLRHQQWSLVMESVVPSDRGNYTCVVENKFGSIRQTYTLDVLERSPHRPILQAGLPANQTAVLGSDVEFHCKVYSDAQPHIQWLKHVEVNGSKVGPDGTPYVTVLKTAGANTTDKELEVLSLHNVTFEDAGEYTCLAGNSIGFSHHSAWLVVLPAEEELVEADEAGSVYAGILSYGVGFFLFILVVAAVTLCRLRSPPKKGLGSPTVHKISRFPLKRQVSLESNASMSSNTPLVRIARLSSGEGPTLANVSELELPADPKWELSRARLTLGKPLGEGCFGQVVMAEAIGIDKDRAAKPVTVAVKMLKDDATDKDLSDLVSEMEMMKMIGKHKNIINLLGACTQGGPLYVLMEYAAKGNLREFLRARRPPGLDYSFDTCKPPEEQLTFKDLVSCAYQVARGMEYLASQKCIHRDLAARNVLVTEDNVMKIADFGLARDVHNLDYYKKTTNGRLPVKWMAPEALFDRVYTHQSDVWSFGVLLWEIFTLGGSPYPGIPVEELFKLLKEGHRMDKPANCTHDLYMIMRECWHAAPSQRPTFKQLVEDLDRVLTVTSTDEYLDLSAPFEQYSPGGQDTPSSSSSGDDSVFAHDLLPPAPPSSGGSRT
Procedure, shortened: as §1

FGFR1 = FGFR1 (Homo sapiens (Human), UniProt P11362)
Chain of FGFR1 (P11362 22-822): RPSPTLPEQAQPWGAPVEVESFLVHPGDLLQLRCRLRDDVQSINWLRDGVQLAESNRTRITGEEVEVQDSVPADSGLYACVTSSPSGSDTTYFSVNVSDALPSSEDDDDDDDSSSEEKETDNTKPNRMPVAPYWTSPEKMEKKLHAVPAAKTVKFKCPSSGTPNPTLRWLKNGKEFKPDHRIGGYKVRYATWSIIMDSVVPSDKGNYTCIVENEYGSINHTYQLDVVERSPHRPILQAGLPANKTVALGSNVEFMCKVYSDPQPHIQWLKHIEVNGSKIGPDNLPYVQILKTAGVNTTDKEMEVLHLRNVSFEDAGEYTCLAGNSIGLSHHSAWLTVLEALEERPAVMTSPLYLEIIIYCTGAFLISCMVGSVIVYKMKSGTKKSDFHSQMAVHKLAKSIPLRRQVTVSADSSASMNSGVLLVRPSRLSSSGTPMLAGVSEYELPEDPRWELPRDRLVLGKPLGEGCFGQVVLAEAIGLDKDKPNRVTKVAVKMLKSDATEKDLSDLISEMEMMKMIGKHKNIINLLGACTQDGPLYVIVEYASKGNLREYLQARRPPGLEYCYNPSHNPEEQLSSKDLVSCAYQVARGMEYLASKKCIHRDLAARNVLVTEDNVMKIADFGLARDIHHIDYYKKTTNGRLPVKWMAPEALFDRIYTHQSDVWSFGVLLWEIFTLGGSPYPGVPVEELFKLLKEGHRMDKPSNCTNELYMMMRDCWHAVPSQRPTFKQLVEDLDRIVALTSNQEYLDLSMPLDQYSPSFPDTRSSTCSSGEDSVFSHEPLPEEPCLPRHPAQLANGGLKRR
Procedure, shortened: as §1

FGFR2 = FGFR2 (Homo sapiens (Human), UniProt P21802)
Chain of FGFR2 (P21802 22-821): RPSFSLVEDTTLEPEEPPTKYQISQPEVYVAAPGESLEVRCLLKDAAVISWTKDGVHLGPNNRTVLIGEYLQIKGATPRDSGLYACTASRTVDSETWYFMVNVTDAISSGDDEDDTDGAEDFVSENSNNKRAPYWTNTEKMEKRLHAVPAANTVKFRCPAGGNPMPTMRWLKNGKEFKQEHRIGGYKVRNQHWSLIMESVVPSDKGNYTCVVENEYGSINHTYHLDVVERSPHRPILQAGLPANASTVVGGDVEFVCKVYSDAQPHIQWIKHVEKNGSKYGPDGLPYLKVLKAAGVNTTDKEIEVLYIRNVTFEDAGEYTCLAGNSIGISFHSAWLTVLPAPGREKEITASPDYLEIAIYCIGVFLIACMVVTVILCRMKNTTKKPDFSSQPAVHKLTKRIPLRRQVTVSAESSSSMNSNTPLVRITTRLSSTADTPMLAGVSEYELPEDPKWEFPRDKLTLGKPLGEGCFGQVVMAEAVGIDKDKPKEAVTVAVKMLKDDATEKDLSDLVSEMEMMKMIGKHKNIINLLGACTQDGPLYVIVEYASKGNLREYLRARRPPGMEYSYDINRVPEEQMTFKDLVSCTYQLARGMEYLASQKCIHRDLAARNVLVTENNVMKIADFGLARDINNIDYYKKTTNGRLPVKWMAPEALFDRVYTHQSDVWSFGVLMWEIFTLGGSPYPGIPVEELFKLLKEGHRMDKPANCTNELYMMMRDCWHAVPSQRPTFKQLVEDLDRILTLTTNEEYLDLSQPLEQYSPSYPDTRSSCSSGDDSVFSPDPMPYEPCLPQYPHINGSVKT
Procedure, shortened: as §1

Chain of FGFR3 (P22607 23-806): as the sequence (P22607 23-806 V555M) above, with M533V counted along it

Row | SMILES | Kd (FGFR3) | Kd (FGFR4) | Kd (FGFR3 (V555M)) | Kd (FGFR1) | Kd (FGFR2) | Kd (FGFR3; given as a number)
1 | CCOC(=O)N1CC2(C1)CN(c1ccc(-c3n[nH]c4ccc(O[C@@H](C)c5c(C)cnnc5C)cc34)cn1)C2 [Example 151, ethyl 6-[5-[5-[(1S)-1-(3,5-dimethylpyridazin-4-yl)ethoxy]-1H-indazol-3-yl]-2-pyridyl]-2,6-diazaspiro[3.3]heptane-2-carboxylate] | 20 to 100 nM | 100 to 300 nM | 1 to 20 nM | > 300 nM | 100 to 300 nM | 
2 | C[C@@H](Oc1ccc2[nH]nc(-c3cnc(Cl)nc3)c2c1)c1c(Cl)cncc1Cl [Example 59, 3-(2-Chloropyrimidin-5-yl)-5-[(1R)-1-(3,5-dichloro-4-pyridyl)ethoxy]-1H-indazole] | 20 to 100 nM | 20 to 100 nM | 20 to 100 nM | 20 to 100 nM | 100 to 300 nM | 
3 | C[C@@H](Oc1ccc2[nH]nc(-c3cnc(N4CC(C)(N)C4)c(C#N)c3)c2c1)c1c(Cl)cncc1Cl [Example 358, (R)-2-(3-amino-3-methylazetidin-1-yl)-5-(5-(1-(3,5-dichloropyridin-4-yl)ethoxy)-1H-indazol-3-yl)nicotinonitrile] | 1 to 20 nM | 1 to 20 nM | 1 to 20 nM | 20 to 100 nM | 100 to 300 nM | 
4 | Cc1ncc(Cl)c([C@@H](C)Oc2ccc3[nH]nc(-c4cnc(N5CC6(CCCN(S(C)(=O)=O)C6)C5)c(C#N)c4)c3c2)c1Cl [Example 350, 5-[5-[(1R)-1-(3,5-dichloro-2-methyl-4-pyridyl)ethoxy]-1H-indazol-3-yl]-2-(8-methylsulfonyl-2,8-diazaspiro[3.5]nonan-2-yl)pyridine-3-carbonitrile] |  | 1 to 20 nM | 20 to 100 nM | > 300 nM | 100 to 300 nM | 90 nM
5 | Cc1ncc(Cl)c([C@@H](C)Oc2cc3c(-c4ccc(N5CC6(C5)CN(S(C)(=O)=O)C6)nc4)n[nH]c3cc2F)c1Cl [Example 266, 5-[(1R)-1-(3,5-dichloro-2-methyl-4-pyridyl)ethoxy]-6-fluoro-3-[6-(2-methylsulfonyl-2,6-diazaspiro[3.3]heptan-6-yl)-3-pyridyl]-1H-indazole] | 1 to 20 nM | 1 to 20 nM | 1 to 20 nM | 1 to 20 nM | 1 to 20 nM | 
6 | C[C@@H](Oc1ccc2[nH]nc(-c3cnc(N4CC5(CN(CC(F)(F)F)C5)C4)c(C#N)c3)c2c1)c1c(Cl)cncc1Cl [Example 329, (R)-5-(5-(1-(3,5-dichloropyridin-4-yl)ethoxy)-1H-indazol-3-yl)-2-(6-(2,2,2-trifluoroethyl)-2,6-diazaspiro[3.3]heptan-2-yl)nicotinonitrile] | 20 to 100 nM | 1 to 20 nM | 1 to 20 nM | 100 to 300 nM | > 300 nM | 
7 | CNC1(C)CN(c2ncc(-c3n[nH]c4cc(Cl)c(O[C@H](C)c5c(Cl)cnc(C)c5Cl)cc34)cc2F)C1 [Example 275, 1-[5-[6-chloro-5-[(1R)-1-(3,5-dichloro-2-methyl-4-pyridyl)ethoxy]-1H-indazol-3-yl]-3-fluoro-2-pyridyl]-N,3-dimethyl-azetidin-3-amine] | 1 to 20 nM | 1 to 20 nM | 1 to 20 nM | 1 to 20 nM | 20 to 100 nM | 
8 | COc1cc(-c2n[nH]c3ccc(O[C@H](C)c4c(Cl)cncc4Cl)cc23)cnc1N1CCOCC1 [Example 105, 4-[5-[5-[(1R)-1-(3,5-dichloro-4-pyridyl)ethoxy]-1H-indazol-3-yl]-3-methoxy-2-pyridyl]morpholine] | 100 to 300 nM | 20 to 100 nM | 100 to 300 nM | > 300 nM | > 300 nM | 
9 | C[C@@H](Oc1ccc2[nH]nc(-c3ccc(N4CC5(CN(CC(F)(F)F)C5)C4)nc3)c2c1)c1c(Cl)cncc1Cl [Example 224, (R)-5-(1-(3,5-dichloropyridin-4-yl)ethoxy)-3-(6-(6-(2,2,2-trifluoroethyl)-2,6-diazaspiro[3.3]heptan-2-yl)pyridin-3-yl)-1H-indazole] | 1 to 20 nM | 1 to 20 nM | 1 to 20 nM | 1 to 20 nM | 20 to 100 nM | 
10 | Cc1cnnc(C)c1[C@@H](C)Oc1ccc2[nH]nc(-c3cnc(N4CC[C@H](C(C)(C)O)C4)c(C#N)c3)c2c1 [Example 301, 5-(5-((R)-1-(3,5-dimethylpyridazin-4-yl)ethoxy)-1H-indazol-3-yl)-2-((S)-3-(2-hydroxypropan-2-yl)pyrrolidin-1-yl)nicotinonitrile] | 20 to 100 nM | 1 to 20 nM | 1 to 20 nM | 100 to 300 nM | 100 to 300 nM | 
11 | C[C@@H](Oc1cc2c(-c3cnc(N4CC(C)(C)C4)c(C#N)c3)n[nH]c2cc1Cl)c1c(Cl)cncc1Cl [Example 364, (R)-5-(6-chloro-5-(1-(3,5-dichloropyridin-4-yl)ethoxy)-1H-indazol-3-yl)-2-(3,3-dimethylazetidin-1-yl)nicotinonitrile] | 1 to 20 nM | 20 to 100 nM | 1 to 20 nM | 20 to 100 nM | 1 to 20 nM | 
12 | C[C@@H](Oc1ccc2[nH]nc(-c3ccc(N4CC5(CCN5)C4)nc3)c2c1)c1c(Cl)cncc1Cl [Example 99, 3-[6-(1,6-diazaspiro[3.3]heptan-6-yl)-3-pyridyl]-5-[(1R)-1-(3,5-dichloro-4-pyridyl)ethoxy]-1H-indazole] | 1 to 20 nM | 1 to 20 nM | 1 to 20 nM | 1 to 20 nM | 1 to 20 nM | 
13 | C[C@@H](Oc1ccc2[nH]nc(-c3cnc(N4CC[C@@H]4CO)c(C#N)c3)c2c1)c1c(Cl)cncc1Cl [Example 351, 5-(5-((R)-1-(3,5-dichloropyridin-4-yl)ethoxy)-1H-indazol-3-yl)-2-((R)-2-(hydroxymethyl)azetidin-1-yl)nicotinonitrile] | 1 to 20 nM | 1 to 20 nM | 1 to 20 nM | 20 to 100 nM | 100 to 300 nM | 
14 | COc1cc2[nH]nc(-c3ccc(N4CC5(C4)CN(S(C)(=O)=O)C5)nc3)c2cc1O[C@H](C)c1c(Cl)cnnc1Cl [Example 261, (R)-5-(1-(3,5-dichloropyridazin-4-yl)ethoxy)-6-methoxy-3-(6-(6-(methylsulfonyl)-2,6-diazaspiro[3.3]heptan-2-yl)pyridin-3-yl)-1H-indazole] | 1 to 20 nM | 1 to 20 nM | 1 to 20 nM | 1 to 20 nM | 1 to 20 nM | 
15 | C[C@@H](Oc1ccc2[nH]nc(-c3ccc(N4CC5(CN(C(=O)C(F)(F)F)C5)C4)nc3)c2c1)c1c(Cl)cncc1Cl [Example 245, 1-[6-[5-[5-[(1R)-1-(3,5-dichloro-4-pyridyl)ethoxy]-1H-indazol-3-yl]-2-pyridyl]-2,6-diazaspiro[3.3]heptan-2-yl]-2,2,2-trifluoro-ethanone] | 1 to 20 nM | 1 to 20 nM | 1 to 20 nM | 1 to 20 nM | 1 to 20 nM | 
16 | C[C@@H]1CCN1c1ncc(-c2n[nH]c3cc(Cl)c(O[C@H](C)c4c(Cl)cncc4Cl)cc23)cc1F [Example 272, 6-chloro-5-((R)-1-(3,5-dichloropyridin-4-yl)ethoxy)-3-(5-fluoro-6-((R)-2-methylazetidin-1-yl)pyridin-3-yl)-1H-indazole] | 20 to 100 nM | 20 to 100 nM | 20 to 100 nM | > 300 nM | > 300 nM | 
17 | C[C@@H](Oc1ccc2[nH]nc(-c3ccc(N4CC5(CNC5)C4)nc3)c2c1)c1cc(F)cc(F)c1 [Example 169, 3-[6-(2,6-diazaspiro[3.3]heptan-2-yl)-3-pyridyl]-5-[(1R)-1-(3,5-difluorophenyl)ethoxy]-1H-indazole] | 1 to 20 nM | 20 to 100 nM | 1 to 20 nM | 20 to 100 nM | 20 to 100 nM | 
